Patent US11013235B2 (priority 2015, dated 2021)
Read-outs that look alike come from different tables or passages of the source.

Assays:
Assay type in all cases: in vivo
[1] = tested on: Candidatus 'Liberibacter asiaticus'; details: spraying every 15 days, 12 months after treatment, Citrus sinensis with HLB
[2] = tested on: Phytophthora parasitica; experiment: Control of Phytophthora parasitica disease in tobacco (Pp-Nt); details: 1 μM spraying every 24 hours for one week, water control 91
[3] = tested on: Rhizoctonia solani; experiment: Control of Rhizoctonia solani disease in tobacco (Rs-Nt); details: 1 μM spraying every 24 hours for one week, water control 87
[4] = tested on: Nocardia sp; experiment: Control of Nocardia sp disease in tobacco (N-Nt); details: 1 μM spraying every 24 hours for one week, water control 58
Procedure, shortened: (§1)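 Treatment: spraying at 1 μM every 24 h for 1 week after pathogen inoculation, versus water. Scoring differed by pathogen: Botrytis by lesion diameter, Alternaria by fraction of leaves with symptoms, Nocardia by plant mortality.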

[5] = tested on: Rhizoctonia solani; experiment: Control of Rhizoctonia solani disease in tomato (Rs-SI); details: 1 μM spraying every 24 hours for one week, water control 96
[6] = tested on: Alternaria solani; experiment: Control of Alternaria solani disease in tomato (As-SI); details: 1 μM spraying every 24 hours for one week, water control 68
Procedure, shortened: as §1

[7] = tested on: Botrytis cinerea; experiment: Control of Botrytis cinerea disease in Arabidopsis (Bc-At); details: 1 μM spraying every 24 hours for one week, water control 8.7
Procedure, shortened: as §1

[8] = tested on: Botrytis cinerea; experiment: Control of Botrytis cinerea disease in tobacco (Bc-Nt); details: 1 μM spraying every 24 hours for one week, water control 6.7
Procedure, shortened: as §1

[9] = tested on: Botrytis cinerea; experiment: Control of Botrytis cinerea disease in tomato (Bc-SI); details: 1 μM spraying every 24 hours for one week, water control 7.4
Procedure, shortened: as §1

[10] = tested on: Radopholus similis; experiment: Nematode control, nodules per plant: Radopholus similis; details: 1 μM foliar application every 5 days, evaluation 35 days after, control 45
Procedure, shortened: (§2)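 Ten plants per group were treated by spraying leaves only, every 5 days, with compound at 1 μM in water diluted from ethanol, and final nodule counts per plant were taken after 35 days.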

[11] = tested on: Meloidogyne incognita; experiment: Nematode control, nodules per plant: Meloidogyne incognita; details: 1 μM foliar application every 5 days, evaluation 35 days after, control 34
Procedure, shortened: as §2

[12] = tested on: Pratylenchus coffeae; experiment: Nematode control, nodules per plant: Pratylenchus coffeae; details: 1 μM foliar application every 5 days, evaluation 35 days after, control 42
Procedure, shortened: as §2

Row | SMILES | Titers of the bacterium ([1]; 0.001 μM) [copies per reaction] | Titers of the bacterium ([1]; 0.01 μM) [copies per reaction] | Titers of the bacterium ([1]; 1 μM) [copies per reaction] | Titers of the bacterium ([1]; 5 μM) [copies per reaction] | Titers of the bacterium ([1]; 10 μM) [copies per reaction] | Pp-Nt: percentage of mortality [2] [%] | Rs-Nt: percentage of mortality [3] [%] | N-Nt: percentage of mortality [4] [%] | Rs-SI: percentage of mortality [5] [%] | As-SI: percentage of leaves with the disease symptoms [6] [%] | Bc-At: mean of the diameter of the lesion [7] [mm] | Bc-Nt: mean of the diameter of the lesion [8] [mm] | Bc-SI: mean of the diameter of the lesion [9] [mm] | Rs: number of nodules per plant [10] | Mi: number of nodules per plant [11] | Pc: number of nodules per plant [12]
1 | Cc1nc(N2CCN(C3CCCCC3)CC2)ncc1C(=O)N1CC2CC(O)C(O)CC2C1 (stereo not drawn) [IIIF, 2-{[2-(4-cyclohexylpiperazin-1-yl)-4-methylpyrimidin-5-yl]carbonyl}-octahydro-1H-isoindole-5,6-diol] | 658 | 5 | 4 | 68 | 3654 | 0 | 0 | 0 | 1 | 5 | 1.5 | 1.5 | 2.5 | 0 | 0 | 0
2 | O=C(CCc1cc2cc3c(-n4cccc4)coc3cc2oc1=O)NCC(O)CO (stereo not drawn) [IG, N-(2,3-dihydroxypropyl)-3-[2-oxo-6-(1H-pyrrol-1-yl)-2H-furo[3,2-g]chromen-3-yl]propanamide] | 657 | 11 | 1 | 65 | 5423 | 3 | 0 | 0 | 1 | 7 | 1.2 | 0.3 | 0.8 | 31 | 0 | 0
3 | O=C(c1cnc(N2CCNCC2)nc1)N1CC2CC(O)C(O)CC2C1 (stereo not drawn) [IIII, 2-{[2-(piperazin-1-yl)pyrimidin-5-yl]carbonyl}-octahydro-1H-isoindole-5,6-diol] | 435 | 9 | 8 | 45 | 8654 | 2 | 3 | 1 | 2 | 2 | 1.2 | 0.3 | 0.8 | 2 | 3 | 12
4 | CC1CCN(C(=O)c2ccc(OC3CCN(CC(O)CO)CC3)cc2)C1 (stereo not drawn) [IVA, 3-(4-{4-[(3-methylpyrrolidin-1-yl)carbonyl]phenoxy}piperidin-1-yl)propane-1,2-diol] | 598 | 1 | 5 | 98 | 6521 | 0 | 0 | 0 | 1 | 5 | 2.4 | 1.5 | 0.8 | 0 | 0 | 0
5 | Cc1coc2cc3oc(=O)c(CCC(=O)NCC(O)CO)cc3cc12 (stereo not drawn) [IA, N-(2,3-dihydroxypropyl)-3-{6-methyl-2-oxo-2H-furo[3,2-g]chromen-3-yl}propanamide] | 524 | 12 | 0 | 52 | 9652 | 1 | 2 | 1 | 3 | 1 | 1.2 | 0.3 | 0.8 | 12 | 23 | 18
6 | CC(O)C(O)CN1CCC(Oc2ccc(C(=O)N3CCC(C4CCCCC4)C3)cc2)CC1 (stereo not drawn) [IVF, 1-(4-{4-[(3-cyclohexylpyrrolidin-1-yl)carbonyl]phenoxy}piperidin-1-yl)butane-2,3-diol] | 657 | 0 | 0 | 67 | 8654 | 0 | 0 | 1 | 2 | 8 | 1.5 | 1.5 | 2.5 | 0 | 0 | 17
7 | CC1=COC2c3c(oc(=O)c(CC(=O)NCC(O)CO)c3C)C=CC12 (stereo not drawn) [IIH, N-(2,3-dihydroxypropyl)-2-{5,13-dimethyl-11-oxo-3,10-dioxatricyclo[7.4.0.0^{2,6}]trideca-1(9),4,7,12-tetraen-12-yl}acetamide] | 756 | 0 | 1 | 76 | 2365 | 1 | 2 | 1 | 3 | 1 | 1.5 | 1.5 | 2.5 | 16 | 2 | 18
8 | Cc1c2c(oc(=O)c1CC(=O)NCC(O)CO)C=CC1C(C3CCCC3)=COC21 (stereo not drawn) [IIK, 2-{5-cyclopentyl-13-methyl-11-oxo-3,10-dioxatricyclo[7.4.0.0^{2,6}]trideca-1(9),4,7,12-tetraen-12-yl}-N-(2,3-dihydroxypropyl)acetamide] | 578 | 8 | 0 | 78 | 2365 | 0 | 0 | 1 | 2 | 8 | 1.2 | 0.3 | 0.8 | 0 | 0 | 14
9 | Cc1nc(N2CCN(n3cccc3)CC2)ncc1C(=O)N1CC2CC(O)C(O)CC2C1 (stereo not drawn) [IIIL, 2-({4-methyl-2-[4-(1H-pyrrol-1-yl)piperazin-1-yl]pyrimidin-5-yl}carbonyl)-octahydro-1H-isoindole-5,6-diol] | 524 | 0 | 6 | 54 | 5840 | 0 | 0 | 0 | 0 | 7 | 1.5 | 1.5 | 2.5 | 0 | 0 | 0
